Assay results published in US9908886B2 (Agency for Science, Technology and Research, priority 2012, dated 2018).
pIC50: −log10 of the molar value. Structures can show the parent of a compound that is named as a salt. Where two headings read alike, the source gives them in different places.

How the values were obtained:
MNK1 = MNK1 (Homo sapiens, UniProt Q9BUB5); assay: In vitro MNK kinase assay (Caliper LabChip mobility shift); format: biochemical
MNK2 = MNK2 (Homo sapiens (Human), UniProt Q9HBH9); assay: as above; format: biochemical
[1] = enzymatic, 1.2 mM ATP, read-out: IC50 Mnk1
[2] = enzymatic, 250 μM ATP, read-out: IC50 Mnk2

Sequence of MNK2 (Q9HBH9 84-388): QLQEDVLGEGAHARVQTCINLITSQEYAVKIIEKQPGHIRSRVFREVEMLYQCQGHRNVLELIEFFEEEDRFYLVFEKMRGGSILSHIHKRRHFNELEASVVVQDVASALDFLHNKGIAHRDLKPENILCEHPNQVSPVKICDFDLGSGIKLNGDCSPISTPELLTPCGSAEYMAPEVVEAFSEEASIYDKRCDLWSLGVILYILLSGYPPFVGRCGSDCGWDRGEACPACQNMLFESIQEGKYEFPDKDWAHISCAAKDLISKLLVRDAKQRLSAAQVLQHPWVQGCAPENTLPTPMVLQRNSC

Molecule O=C(c1ccc(-c2cn3c(-c4ccc(Cl)cc4)cnc3cn2)cc1)N1CCNCC1 [Example 46, (4-(3-(4-chlorophenyl)imidazo[1,2-a]pyrazin-6-yl)phenyl)(piperazin-1-yl)methanone 2,2,2-trifluoroacetate salt] has a pIC50 (MNK1; [1]) of over 6.00 and a pIC50 (MNK2; [2]) of over 6.00.

Molecule N#Cc1ccc(-c2cnc3cnc(-c4ccc(C(=O)N5CCC(N)CC5)c(F)c4)cn23)cc1 [Example 29, 4-(6-(4-(4-aminopiperidine-1-carbonyl)-3-fluorophenyl)imidazo[1,2-a]pyrazin-3-yl)benzonitrile] has a pIC50 (MNK1; [1]) of over 6.00 and a pIC50 (MNK2; [2]) of over 6.00.

CC1(N)CCN(C(=O)c2ccc(-c3cn4c(-c5ccc(C#N)cc5)cnc4cn3)cc2F)CC1 [Example 30, 4-(6-(4-(4-amino-4-methylpiperidine-1-carbonyl)-3-fluorophenyl)imidazo[1,2-a]pyrazin-3-yl)benzonitrile] gave a pIC50 (MNK1; [1]) of over 6.00 and a pIC50 (MNK2; [2]) of over 6.00.

Work on N#Cc1ccc(-c2cnn3ccc(-c4ccc(C(=O)N5CCNCC5)cc4)nc23)cc1 [Example 183, 4-(5-(4-(piperazine-1-carbonyl)phenyl)pyrazolo[1,5-a]pyrimidin-3-yl)benzonitrile] yielded a pIC50 (MNK1; [1]) of over 7.00 and a pIC50 (MNK2; [2]) of over 7.00.

Molecule CC(=O)NC1CCN(C(=O)c2ccc(-c3ccn4ncc(-c5ccc(C#N)cc5)c4n3)cc2)CC1 [Example 186, N-(1-(4-(3-(4-cyanophenyl)pyrazolo[1,5-a]pyrimidin-5-yl)benzoyl)piperidin-4-yl)acetamide] has a pIC50 (MNK1; [1]) of over 7.00 and a pIC50 (MNK2; [2]) of over 7.00.

In the case of O=C1CCN(C(=O)c2ccc(-c3cn4c(-c5ccc(Cl)cc5)cnc4cn3)cc2)CC1 [Example 43, 1-(4-(3-(4-chlorophenyl)imidazo[1,2-a]pyrazin-6-yl)benzoyl)piperidin-4-one], the pIC50 (MNK1; [1]) was over 6.00 and the pIC50 (MNK2; [2]) was over 6.00.

With N#Cc1ccc(-c2cnc3ccc(-c4ccc(C(=O)N5CCNCC5)c(O)c4)cn23)cc1 [Example 159, 4-(6-(3-hydroxy-4-(piperazine-1-carbonyl)phenyl)imidazo[1,2-a]pyridin-3-yl)benzonitrile] the pIC50 (MNK1; [1]) was over 7.00 and the pIC50 (MNK2; [2]) was over 7.00.

Cc1cc2ncc(-c3ccc(C#N)cc3)n2cc1-c1ccc(C(=O)N2CCC(C)(N)CC2)cc1 [Example 137, 4-(6-(4-(4-amino-4-methylpiperidine-1-carbonyl)phenyl)-7-methylimidazo[1,2-a]pyridin-3-yl)benzonitrile] showed a pIC50 (MNK1; [1]) of over 6.00 and a pIC50 (MNK2; [2]) of over 7.00.

CC(=O)Nc1cc(-c2ccc3ncc(-c4ccc(C#N)cc4)n3c2)ccc1C(=O)N1CCNCC1 [Example 170, N-(5-(3-(4-cyanophenyl)imidazo[1,2-a]pyridin-6-yl)-2-(piperazine-1-carbonyl)phenyl)acetamide] gave a pIC50 (MNK1; [1]) of over 7.00 and a pIC50 (MNK2; [2]) of over 7.00.

CN(C(=O)c1ccc(-c2ccc3ncc(-c4ccc(C#N)cc4)n3c2)cc1)c1ccncc1 [Example 122, 4-(3-(4-cyanophenyl)imidazo[1,2-a]pyridin-6-yl)-N-methyl-N-(pyridin-4-yl)benzamide] showed a pIC50 (MNK1; [1]) of over 6.00 and a pIC50 (MNK2; [2]) of over 6.00.

CNC1CCN(C(=O)c2ccc(-c3ccc4ncc(-c5ccc(C#N)cc5)n4c3)cc2NC(C)=O)CC1 [Example 169, N-(5-(3-(4-cyanophenyl)imidazo[1,2-a]pyridin-6-yl)-2-(4-(methylamino)piperidine-1-carbonyl)phenyl)acetamide] showed a pIC50 (MNK1) of over 7.00 and a pIC50 (MNK2) of over 7.00.

In the case of N#Cc1ccc(-c2cnc3ccc(-c4ccc(C(=O)N5CCC6(CCCCN6)CC5)cc4)cn23)cc1 [Example 117, 4-(6-(4-(1,9-diazaspiro[5.5]undecane-9-carbonyl)phenyl)imidazo[1,2-a]pyridin-3-yl)benzonitrile], the pIC50 (MNK1; [1]) was over 7.00 and the pIC50 (MNK2; [2]) was over 7.00.

Molecule NC(=O)c1ccc(-c2cnc3cnc(-c4ccc(C(=O)N5CCC(N)CC5)cc4)cn23)cc1 [Example 4, 4-(6-(4-(4-aminopiperidine-1-carbonyl)phenyl)imidazo[1,2-a]pyrazin-3-yl)benzamide hydrochloride] has a pIC50 (MNK1; [1]) of over 7.00 and a pIC50 (MNK2; [2]) of over 7.00.

Work on N#Cc1ccc(-c2cnc3ccc(-c4ccc(C(=O)N5CCOCC5)c(O)c4)cn23)cc1 [Example 167, 4-(6-(3-hydroxy-4-(morpholine-4-carbonyl)phenyl)imidazo[1,2-a]pyridin-3-yl)benzonitrile] yielded a pIC50 (MNK1; [1]) of over 7.00 and a pIC50 (MNK2; [2]) of over 7.00.

N#Cc1ccc(-c2cnc3ccc(-c4ccc(C(=O)N5CCN(Cc6ccc(C(N)=O)cc6)CC5)cc4)cn23)cc1 [Example 129, 4-((4-(4-(3-(4-cyanophenyl)imidazo[1,2-a]pyridin-6-yl)benzoyl)piperazin-1-yl)methyl)benzamide] showed a pIC50 (MNK1; [1]) of over 6.00 and a pIC50 (MNK2; [2]) of over 7.00.

N#Cc1ccc(-c2cnc3ccc(-c4ccc(C(=O)N5CCCOCC5)cc4)nn23)cc1 [Example 64, 4-(6-(4-(1,4-oxazepane-4-carbonyl)phenyl)imidazo[1,2-b]pyridazin-3-yl)benzonitrile] was tested, and the pIC50 (MNK1; [1]) was over 7.00 and the pIC50 (MNK2; [2]) was over 7.00.

In the case of CN1CCN(C(=O)c2ccc(-c3cn4c(-c5ccc(C#N)cc5)cnc4cn3)c(O)c2)CC1 [Example 38, 4-(6-(2-hydroxy-4-(4-methylpiperazine-1-carbonyl)phenyl)imidazo[1,2-a]pyrazin-3-yl)benzonitrile], the pIC50 (MNK1; [1]) was over 6.00 and the pIC50 (MNK2; [2]) was over 6.00.

In the case of Cc1cc(-c2ccc3ncc(-c4ccc(C#N)cc4)n3c2)ccc1C(=O)N1CCOCC1 [Example 156], the pIC50 (MNK1; [1]) was over 6.00 and the pIC50 (MNK2; [2]) was over 6.00.

CC1(O)CCN(C(=O)c2ccc(-c3ccc4ncc(-c5ccc(C#N)cc5)n4c3)cc2)CC1 [Example 106, 4-(6-(4-(4-hydroxy-4-methylpiperidine-1-carbonyl)phenyl)imidazo[1,2-a]pyridin-3-yl)benzonitrile] gave a pIC50 (MNK1; [1]) of over 7.00 and a pIC50 (MNK2; [2]) of over 7.00.

Work on CN(C)C1CCN(C(=O)c2ccc(-c3ccc4ncc(-c5ccc(C#N)cc5)n4c3)cc2)CC1 [Example 112, 4-(6-(4-(4-(dimethylamino)piperidine-1-carbonyl)phenyl)imidazo[1,2-a]pyridin-3-yl)benzonitrile] yielded a pIC50 (MNK1; [1]) of over 7.00 and a pIC50 (MNK2; [2]) of over 7.00.

Molecule CN(C)C1CCN(C(=O)c2ccc(-c3ccc4ncc(-c5ccc(C#N)cc5)n4n3)cc2)CC1 [Example 63, 4-(6-(4-(4-(dimethylamino)piperidine-1-carbonyl)phenyl)imidazo[1,2-b]pyridazin-3-yl)benzonitrile] has a pIC50 (MNK1; [1]) of over 7.00 and a pIC50 (MNK2; [2]) of over 7.00.

CN1CCN(C2(C)CCN(C(=O)c3ccc(-c4ccc5ncc(-c6ccc(C#N)cc6)n5c4)cc3)CC2)CC1 [Example 164, 4-(6-(4-(4-methyl-4-(4-methylpiperazin-1-yl)piperidine-1-carbonyl)phenyl)imidazo[1,2-a]pyridin-3-0)benzonitrile] was tested, and the pIC50 (MNK1; [1]) was over 7.00 and the pIC50 (MNK2; [2]) was over 7.00.

Molecule CC1(C)CCN(C(=O)c2ccc(-c3cn4c(-c5ccc(C(N)=O)cc5)cnc4cn3)cc2)CC1 [Example 3, 4-(6-(4-(4,4-dimethylpiperidine-1-carbonyl)phenyl)imidazo[1,2-a]pyrazin-3-yl)benzamide] has a pIC50 (MNK1; [1]) of over 6.00 and a pIC50 (MNK2; [2]) of over 7.00.

Work on N#Cc1ccc(-c2cnc3ccc(-c4ccc(C(=O)N5CCNC(=O)C5)cc4)cn23)cc1 [Example 102, 4-(6-(4-(3-oxopiperazine-1-carbonyl)phenyl)imidazo[1,2-a]pyridin-3-yl)benzonitrile] yielded a pIC50 (MNK1; [1]) of over 7.00 and a pIC50 (MNK2; [2]) of over 7.00.

Work on CNc1cc(-c2ccc3ncc(-c4ccc(C#N)cc4)n3c2)ccc1C(=O)N1CCOCC1 [Example 151, 4-(6-(3-(methylamino)-4-(morpholine-4-carbonyl)phenyl)imidazo[1,2-a]pyridin-3-yl)benzonitrile] yielded a pIC50 (MNK1; [1]) of over 6.00 and a pIC50 (MNK2; [2]) of over 7.00.
